Measurements as given in patent US8163745B2, “HIV inhibiting 5-(hydroxymethylene and aminomethylene) substituted pyrimidines” (Tibotec Pharmaceuticals Ltd., priority 2006, dated 2012).
Like-named read-outs stand apart in the source and are kept apart here.

Tests used:
[1] = tested on: HIV strain MDR (mutations L100I, K103N, Y181C, E138G, V1791, L2214F, V278V/I and A327A/V in HIV reverse transcriptase); test: microbe, parasite or virus in culture; format: cell-based, HIV-1; conditions: MT4 LTR-EGFP cells, measured three days after infection; for EC50: Human immunodeficiency virus 1, 72 h, read-out: MDR (pEC50), MDR strain (converted); for MDR (pEC50): MDR strain
Procedure: (§1) The antiviral activity of the compound of the present invention has been evaluated in the presence of wild type HIV and HIV mutants bearing mutations at the reverse transcriptase gene. The activity of the compounds is evaluated using a cellular assay which was performed according to the following procedure.
(§2) The human T-cell line MT4 is engineered with Green Fluorescent Protein (GFP) and an HIV-specific promoter, HIV-1 long terminal repeat (LTR). This cell line is designated MT4 LTR-EGFP, and can be used for the in vitro evaluation of anti-HIV activity of investigational compounds. In HIV-1 infected cells, the Tat protein is produced which upregulates the LTR promotor and finally leads to stimulation of the GFP reporter production, allowing to measure ongoing HIV-infection fluorometrically.
(§3) Effective concentration values such as 50% effective concentration (EC50) can be determined and are usually expressed in μM. An EC50 value is defined as the concentration of test compound that reduces the fluorescence of HIV-infected cells by 50%. The 50% cytotoxic concentration (CC50 in μM) is defined as the concentration of test compound that reduces fluorescence of the mock-infected cells by 50%. The ratio of CC50 to EC50 is defined as the selectivity index (SI) and is an indication of the selectivity of the anti-HIV activity of the inhibitor. The ultimate monitoring of HIV-1 infection and cytotoxicity is done using a scanning microscope. Image analysis allows very sensitive detection of viral infection. Measurements are done before cell necrosis, which usually takes place about five days after infection, in particular measurements are performed three days after infection.
(§4) The columns IIIB, L100I, etc. in the table list the pEC50 values against various strains IIIB, L100I, etc.
“MDR” refers to a strain that contains mutations L100I, K103N, Y181C, E138G, V1791, L2214F, V278V/I and A327A/V in HIV reverse transcriptase.

[2] = tested on: HIV mutant strain K103N + Y181C; test: microbe, parasite or virus in culture; format: cell-based, HIV-1; conditions: MT4 LTR-EGFP cells, measured three days after infection; for EC50: Human immunodeficiency virus 1, 72 h, read-out: K103N + Y181C (pEC50), strain K103N + Y181C (converted); for K103N + Y181C (pEC50): strain K103N + Y181C
Procedure: as §1, §2, §3, §4

[3] = tested on: HIV mutant strain L100I + K103N; test: microbe, parasite or virus in culture; format: cell-based, HIV-1; conditions: MT4 LTR-EGFP cells, measured three days after infection; for EC50: Human immunodeficiency virus 1, 72 h, read-out: L100I + K103N (pEC50), strain L100I + K103N (converted); for L100I + K103N (pEC50): strain L100I + K103N
Procedure: as §1, §2, §3, §4

HIV mutant strain Y181C = test: microbe, parasite or virus in culture; format: cell-based, HIV-1; conditions: MT4 LTR-EGFP cells, measured three days after infection; for EC50: Human immunodeficiency virus 1, 72 h, read-out: Y181C (pEC50), strain Y181C (converted); for Y181C (pEC50): strain Y181C
Procedure: as §1, §2, §3, §4

[4] = tested on: wild type HIV strain IIIB; test: Cellular anti-HIV assay in MT4 LTR-EGFP cells (GFP fluorescence), strain IIIB; cytotoxicity in mock-infected MT4 CMV-EGFP cells for the selectivity index; format: cell-based, HIV-1; conditions: for EC50: read-out: IIIB (pEC50) (converted)
Procedure: as §1, §2
Analogously, MT4 cells are engineered with GFP and the constitutional cytomegalovirus (CMV) promotor. This cell line is designated MT4 CMV-EGFP, and can be used for the in vitro evaluation of cytotoxicity of investigational compounds. In this cell line, GFP levels are comparably to those of infected MT4 LTR-EGFP cells. Cytotoxic investigational compounds reduce GFP levels of mock-infected MT4 CMV-EGFP cells.
as §3, §4
Strain IIIB is wild type HIV strain.

[5] = Human immunodeficiency virus 1, IIIB, 72 h, wild type HIV strain IIIB, MT4 LTR-EGFP cells, measured three days after infection
[6] = wild type HIV strain IIIB, MT4 LTR-EGFP cells, measured three days after infection

| Structure (SMILES) | EC50 [1] [nM] | EC50 [2] [nM] | EC50 [3] [nM] | EC50 (HIV mutant strain Y181C) [nM] | EC50 ([4]; Human immunodeficiency virus 1, 72 h, wild type HIV strain IIIB, MT4 LTR-EGFP cells, measured three days after infection) [nM] | melting point [°C] | EC50 [4, 5] [nM] | MDR (pEC50) [1] | K103N + Y181C (pEC50) [2] | L100I + K103N (pEC50) [3] | Y181C (pEC50) (HIV mutant strain Y181C) | IIIB (pEC50) [4, 6] | IIIB (pEC50) [4] |
| --- | --- | --- | --- | --- | --- | --- | --- | --- | --- | --- | --- | --- | --- |
| Cc1cc(/C=C/C#N)cc(C)c1Nc1nc(Nc2ccc(C#N)cc2)ncc1C(O)c1ccccn1 (centres unmarked) [Compound 2] | 813 | 3.24 | 3.47 | 8.51 | 3.47 | 244 |  |  |  |  |  |  |  |
| Cc1cc(/C=C/C#N)cc(C)c1Nc1nc(Nc2ccc(C#N)cc2)ncc1C(O)c1cccnc1 (centres unmarked) [Compound 4] | 355 | 5.75 | 3.47 | 5.37 |  |  | 1.78 |  |  |  |  |  |  |
| COc1ccccc1C(O)c1cnc(Nc2ccc(C#N)cc2)nc1Nc1c(C)cc(/C=C/C#N)cc1C (centres unmarked) [Compound 5] | 646 | 18.6 | 8.51 | 8.51 |  |  | 4.07 |  |  |  |  |  |  |
| Cc1csc(CC(O)c2cnc(Nc3ccc(C#N)cc3)nc2Nc2c(C)cc(/C=C/C#N)cc2C)n1 (centres unmarked) [Compound 6] | 2240 | 95.5 | 18.6 | 24.5 |  |  | 3.72 |  |  |  |  |  |  |
| Cc1cnc(C(O)c2cnc(Nc3ccc(C#N)cc3)nc2Nc2c(C)cc(/C=C/C#N)cc2C)s1 (centres unmarked) [Compound 7] | 1620 | 47.9 | 14.8 | 21.4 |  |  | 11.5 |  |  |  |  |  |  |
| Cc1csc(C(O)c2cnc(Nc3ccc(C#N)cc3)nc2Nc2c(C)cc(/C=C/C#N)cc2C)n1 (centres unmarked) [Compound 8] | 209 | 9.55 | 4.27 | 14.5 |  |  | 3.89 |  |  |  |  |  |  |
| Cc1cc(/C=C/C#N)cc(C)c1Nc1nc(Nc2ccc(C#N)cc2)ncc1C(O)C1CCCC1 (centres unmarked) [Compound 9] | 6610 | 759 | 158 | 245 |  |  | 17 |  |  |  |  |  |  |
| Cc1cc(/C=C/C#N)cc(C)c1Nc1nc(Nc2ccc(C#N)cc2)ncc1C(O)c1cncs1 (centres unmarked) [Compound 10] | 145 | 4.07 | 2.63 | 3.8 |  |  | 3.02 |  |  |  |  |  |  |
| Cc1cc(/C=C/C#N)cc(C)c1Nc1nc(Nc2ccc(C#N)cc2)ncc1C(O)c1nccn1C (centres unmarked) [Compound 11] | 832 | 7.24 | 3.72 | 6.03 |  |  | 2.57 |  |  |  |  |  |  |
| C=CC(O)c1cnc(Nc2ccc(C#N)cc2)nc1Nc1c(C)cc(/C=C/C#N)cc1C (centres unmarked) [Compound 12] |  |  |  |  |  |  |  | 6.37 | 8.38 | 8.86 | 8.44 | 8.91 |  |
| Cc1cc(/C=C/C#N)cc(C)c1Nc1nc(Nc2ccc(C#N)cc2)ncc1C(O)C#Cc1cncn1C (centres unmarked) [Compound 13] | 537 | 38.9 | 63.1 | 19.5 |  |  | 3.63 |  |  |  |  |  |  |
| Cc1cc(/C=C/C#N)cc(C)c1Nc1nc(Nc2ccc(C#N)cc2)ncc1C(O)c1nc2ccccc2s1 (centres unmarked) [Compound 14] | 6310 | 100 | 70.8 | 75.9 |  |  | 12.6 |  |  |  |  |  |  |
| Cc1cc(/C=C/C#N)cc(C)c1Nc1nc(Nc2ccc(C#N)cc2)ncc1C(O)c1scnc1Br (centres unmarked) [Compound 15] | 468 | 18.2 | 7.76 | 17.8 |  |  | 6.76 |  |  |  |  |  |  |
| Cc1cc(/C=C/C#N)cc(C)c1Nc1nc(Nc2ccc(C#N)cc2)ncc1C(O)c1cn2ccnc2s1 (centres unmarked) [Compound 16] | 7240 | 95.5 | 63.1 | 89.1 |  |  | 25.1 |  |  |  |  |  |  |
| Cc1cc(/C=C/C#N)cc(C)c1Nc1nc(Nc2ccc(C#N)cc2)ncc1C(O)c1csc2nc(Cl)cn12 (centres unmarked) [Compound 18] | 2190 | 107 | 30.9 | 79.4 |  |  | 18.2 |  |  |  |  |  |  |
| Cc1cc(/C=C/C#N)cc(C)c1Nc1nc(Nc2ccc(C#N)cc2)ncc1C(O)(c1nccs1)c1nccs1 [Compound 21] | 3310 | 85.1 | 23.4 | 56.2 |  |  | 18.2 |  |  |  |  |  |  |
| CCC(O)(c1nccs1)c1cnc(Nc2ccc(C#N)cc2)nc1Nc1c(C)cc(/C=C/C#N)cc1C (centres unmarked) [Compound 22] |  |  |  |  |  |  |  | 5.66 | 7.03 | 7.51 | 7.21 | 7.75 |  |
| Cc1cc(/C=C/C#N)cc(C)c1Nc1nc(Nc2ccc(C#N)cc2)ncc1C(C)(O)c1nccs1 (centres unmarked) [Compound 25] |  |  |  |  |  |  |  | 6.40 | 7.62 | 7.85 | 7.74 | 7.75 |  |
| Cc1cc(/C=C/C#N)cc(C)c1Nc1nc(Nc2ccc(C#N)cc2)ncc1C(O)(c1nccs1)C(C)C (centres unmarked) [Compound 26] |  |  |  |  |  |  |  | 5.12 | 6.24 | 6.33 | 6.66 | 7.00 |  |
| C=CC(O)(c1nccs1)c1cnc(Nc2ccc(C#N)cc2)nc1Nc1c(C)cc(/C=C/C#N)cc1C (centres unmarked) [Compound 27] |  |  |  |  |  |  |  | 6.27 | 7.54 | 7.84 | 7.70 |  | 7.70 |
